Experimental data from PMC9241695, “Selective Metal Chelation by a Thiosemicarbazone Derivative Interferes with Mitochondrial Respiration and Ribosome Biogenesis in Candida albicans” (Microbiology Spectrum, 2022).
Converted amounts (≈) assume the structure as drawn. Read-outs that look alike come from different tables or passages of the source.

Tests used:
Assay type in all cases: cell-based
A. fumigatus AF293 = test: Antifungal susceptibility testing, microbroth dilution MIC; conditions: Aspergillus fumigatus, read-out: MIC (μg/mL) against fungi AF293
Text: (§1) Compound library. The thiosemicarbazone derivatives Triapine and COTI-2 were purchased from Med Chem Express (MCE). The other 87 thiosemicarbazones used in this study were previously synthesized by our collaborators (1, 2). Their structures are shown in Table 1 and Table S1 to help the reader clearly understand the relationship between structure and activity.
(§2) Strains and culture conditions. Clinically derived C. albicans isolates, including G5, F5, and Gu5, were kindly provided by Professor Joachim Morschhäuser of the University of Würzburg. Other clinical C. albicans isolates were kindly donated by Professor Qingguo Qi of Shandong University and Qianfoshan Hospital of Shandong Province Other Candida strains were obtained from Jinan Central Hospital.
(§3) The zap1 mutant and its complemented strain were kindly provided by Professor Aaron P. Mitchell of Carnegie Mellon University (3). The C. neoformans strains used in this study was kindly donated by Professor Guojian Liao of Southwest University and A. fumigatus strain used in this study was provided by Professor Ling Lu of Nanjing Normal University. […]
(§4) Antifungal susceptibility testing. To determine in vitro antifungal activities, the microbroth dilution method was carried out in RPMI1640 medium according to the guidelines of the Clinical and Laboratory Standards Institute (4, 5). The initial concentration in RPMI1640 medium was 1 × 10^3 CFU/mL for the C. albicans and C. neoformans suspensions but 1 × 10^4 CFU/mL for A. fumigatus. The range of final drug concentrations was 0.0156–64 μg/mL. The plates were incubated at35°C for 24 […]
(§5) h (for C. albicans, C. krusei, C. tropicalis, C. parapsilosis) or 48 h (for C. neoformans, A. fumigatus). The MIC was determined based on visible growth inhibition compared with the control. All experiments were performed in duplicate. […]

C. neoformans H99 = test: as above; conditions: Cryptococcus neoformans, H99, 48 h, read-out: MIC (μg/mL) against fungi H99
Text: as §1, §2, §3, §4, §5

C. albicans SC5314 = test: as above; conditions: Candida albicans, SC5314, 24 h, read-out: MIC (μg/mL) against fungi SC5314
Text: as §1, §2
as §3, with “University. Before in vitro and in vivo experiments, all C. albicans strains were grown on YPD agar plates. After culturing at 30°C for 24 h, colonies of each strain were cultured in liquid YPD medium at 30°C with continuous shaking” for “University.”
as §4, §5

A. fumigatus 1161 = test: Microbroth dilution MIC80; conditions: Aspergillus fumigatus; A. fumigatus 1161; read-out: MIC80
Text: as §1, §2
as §3, with “University. Before in vitro and in vivo experiments, all C. albicans strains were grown on YPD agar plates. After culturing at 30°C for 24 h, colonies of each strain were cultured in liquid YPD medium at 30°C with continuous shaking” for “University.”
as §4, §5

| SMILES | MIC (A. fumigatus AF293; AF293, 48 h) | MIC (C. neoformans H99) | MIC (C. albicans SC5314) | MIC (A. fumigatus AF293; AF293, standard strain of A. fumigatus, 48 h) | MIC80 (A. fumigatus 1161) |
| --- | --- | --- | --- | --- | --- |
| COc1ccc(NC(=S)N/N=C(\C)c2ccccn2)cc1 [Compound 19s] | 8 µg/mL (≈ 26.6 µM) | 0.25 µg/mL (≈ 0.832 µM) | 2 µg/mL (≈ 6.66 µM) |  |  |
| C[C@@H](c1ncncc1F)[C@](O)(Cn1cncn1)c1ccc(F)cc1F [VOR, voriconazole, reference compound] |  |  |  | 0.25 µg/mL (≈ 0.716 µM) | 0.25 µg/mL (≈ 0.716 µM) |
| C/C(=N\NC(=S)Nc1ccccc1)c1ccccn1 [Compound 19ac] | 16 µg/mL (≈ 59.2 µM) | 0.25 µg/mL (≈ 0.925 µM) | 2 µg/mL (≈ 7.4 µM) |  |  |
